Source: patent US9434711B2 (Janssen Pharmaceutica, NV, priority 2007, dated 2016)

Target: canine TRPM8 (Canis lupus familiaris, UniProt Q1A7N1)
Assay: In Vitro Canine TRPM8 Functional Assay (Ca2+ fluorescence, icilin activation)
Assay type: cell-based
Details: for IC50: HEK293 cells stably expressing canine TRPM8, icilin activation, eight-point dose-response, read-out: IC50; for % Inh @ 0.2 (μM) / inhibition at 0.2 µM: compound at 0.2 μM, canine TRPM8, icilin activation; for inhibition at 0.2 µM: read-out: % Inh @ 0.2
In short: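 Readout is the intracellular Ca2+ fluorescence change, measured by FLIPR or FDSS, in HEK293 cells stably expressing canine TRPM8. Potency (EC50 or IC50) is fitted from eight concentrations averaged over quadruplicate wells.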

Chain of canine TRPM8 (Q1A7N1 1-1104): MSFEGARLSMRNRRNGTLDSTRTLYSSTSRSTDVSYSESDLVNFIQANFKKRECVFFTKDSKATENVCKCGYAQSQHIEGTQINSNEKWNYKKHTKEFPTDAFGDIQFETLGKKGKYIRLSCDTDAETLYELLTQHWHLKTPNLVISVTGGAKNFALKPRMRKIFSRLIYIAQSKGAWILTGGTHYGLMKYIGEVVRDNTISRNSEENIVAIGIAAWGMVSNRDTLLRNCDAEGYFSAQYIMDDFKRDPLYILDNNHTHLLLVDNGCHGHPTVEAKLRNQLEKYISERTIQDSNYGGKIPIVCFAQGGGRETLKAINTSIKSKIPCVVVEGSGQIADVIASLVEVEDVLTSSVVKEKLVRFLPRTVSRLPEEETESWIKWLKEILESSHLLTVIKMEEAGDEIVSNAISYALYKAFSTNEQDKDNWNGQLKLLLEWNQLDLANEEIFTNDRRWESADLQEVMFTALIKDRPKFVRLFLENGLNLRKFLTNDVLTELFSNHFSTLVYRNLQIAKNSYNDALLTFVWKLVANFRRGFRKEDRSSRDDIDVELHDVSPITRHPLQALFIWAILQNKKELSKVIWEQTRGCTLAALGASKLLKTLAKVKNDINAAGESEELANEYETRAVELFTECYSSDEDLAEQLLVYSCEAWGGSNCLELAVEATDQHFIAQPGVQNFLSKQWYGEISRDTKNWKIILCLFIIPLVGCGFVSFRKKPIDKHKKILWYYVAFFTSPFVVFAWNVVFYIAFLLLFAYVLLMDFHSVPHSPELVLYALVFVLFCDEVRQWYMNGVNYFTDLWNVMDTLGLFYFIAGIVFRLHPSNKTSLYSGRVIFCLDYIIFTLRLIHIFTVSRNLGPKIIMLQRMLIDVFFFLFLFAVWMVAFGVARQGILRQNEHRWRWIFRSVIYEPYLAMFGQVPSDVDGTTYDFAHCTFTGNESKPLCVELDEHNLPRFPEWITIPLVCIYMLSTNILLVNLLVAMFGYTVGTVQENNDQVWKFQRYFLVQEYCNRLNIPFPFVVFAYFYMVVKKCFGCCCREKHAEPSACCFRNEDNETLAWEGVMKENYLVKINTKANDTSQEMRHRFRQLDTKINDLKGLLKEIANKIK

SMILES | IC50 | % Inh @ 0.2 (μM) | inhibition at 0.2 µM
NC(=O)c1ccc(S(=O)(=O)N(Cc2ccc(F)c(C(F)(F)F)c2)c2cc3ccccc3s2)cc1 [Compound 413, N-(Benzo[b]thiophen-2-yl)-N-(4-fluoro-3-trifluoromethyl-benzyl)-4-carboxamide-benzenesulfonamide] | 46 nM | 93% | –
NC(=O)c1ccc(S(=O)(=O)N(CCCC(F)(F)F)c2cc3ccccc3s2)cc1 [Compound 414, N-(Benzo[b]thiophen-2-yl)-N-(4,4,4-trifluoro-butyl)-4-carboxamide-benzene-sulfonamide] | – | 33% | –
COC(=O)c1ccc(S(=O)(=O)N(Cc2ccc(F)c(C(F)(F)F)c2)c2sc3ccccc3c2C(C)(C)O)cc1 [Compound 415, N-(4-Fluoro-3-trifluoromethylbenzyl)-N-(3-(1-hydroxy-1-methyl-ethyl)-benzo[b]thiophen-2-yl)-4-carbomethoxy-benzenesulfonamide] | 5 nM | – | 92%
COC(=O)c1ccc(S(=O)(=O)N(CCCOC(C)(C)C)c2sc3ccccc3c2C)cc1 [Compound 416, N-(3-Methyl-benzo[b]thiophen-2-yl)-N-(3-tert-butoxy-propyl)-4-carbomethoxy-benzenesulfonamide] | 12 nM | – | 95%
CNCc1c(N(Cc2ccc(F)c(C(F)(F)F)c2)S(=O)(=O)c2ccccc2)sc2ccccc12 [Compound 417, N-(4-Fluoro-3-trifluoromethyl-benzyl)-N-(3-methylaminomethyl-benzo[b]thiophen-2-yl)-benzenesulfonamide] | 62 nM | – | 93%
CN(C)Cc1c(N(Cc2ccc(F)c(C(F)(F)F)c2)S(=O)(=O)c2ccccc2)sc2ccccc12 [Compound 418, N-(3-Dimethylaminomethyl-benzo[b]thiophen-2-yl)-N-(4-fluoro-3-trifluoromethyl-benzyl)-benzenesulfonamide] | 69 nM | – | 90%
CCCCN(c1sc2ccccc2c1C=O)S(=O)(=O)c1ccc(C(=O)OC)cc1 [Compound 419, N-(Butyl)-N-(3-formyl-benzo[b]thiophene-2-yl)-4-carbomethoxy-benzenesulfonamide] | 345 nM | – | 74%
CCCCN(c1sc2ccccc2c1CN(C)C)S(=O)(=O)c1ccc(C(=O)OC)cc1 [Compound 420, N-(3-Dimethylaminomethyl-benzo[b]thiophen-2-yl)-N-(butyl)-4-carbomethoxy-benzenesulfonamide] | – | – | 48%
O=S1(=O)C(N(Cc2ccc(F)c(C(F)(F)F)c2)S(=O)(=O)c2ccccc2)=Cc2ccccc21 [Compound 421, N-(4-Fluoro-3-trifluoromethyl-benzyl)-N-(1,1-dioxo-benzo[b]thiophen-2-yl)-benzenesulfonamide] | 64 nM | – | 90%
CCCCN(c1sc2ccccc2c1OC)S(=O)(=O)c1ccc(C(=O)OC)cc1 [Compound 422, N-(Butyl)-N-(3-methoxy-benzo[b]thiophen-2-yl)-4-carbomethoxybenzenesulfonamide] | 18 nM | – | 97%
CCCCN(c1sc2ccccc2c1OC)S(=O)(=O)c1ccc(C(=O)O)cc1 [Compound 423, N-(Butyl)-N-(3-methoxy-benzo[b]thiophen-2-yl)-4-carboxy-benzenesulfonamide] | 7 nM | – | 93%
O=S(=O)(c1ccc(-c2nnn[nH]2)cc1)N(Cc1ccc(F)c(C(F)(F)F)c1)c1cc2ccccc2s1 [Compound 424, N-(Benzo[b]thiophen-2-yl)-N-(4-fluoro-3-trifluoromethyl-benzyl)-4-(1H-tetrazol-5-yl)-benzenesulfonamide] | 7 nM | – | 95%
O=S(=O)(c1ccc(-c2nnn[nH]2)cc1)N(CCCC(F)(F)F)c1cc2ccccc2s1 [Compound 425, N-(Benzo[b]thiophen-2-yl)-N-(4,4,4-trifluoro-butyl)-4-(1H-tetrazol-5-yl)-benzenesulfonamide] | 79 nM | – | 86%
Cc1c(N(CCCC(F)(F)F)S(=O)(=O)c2ccc(C(=O)O)cc2)sc2cc(F)ccc12 [Compound 426, N-(6-Fluoro-3-methyl-benzo[b]thiophen-2-yl)-N-(4,4,4-trifluoro-butyl)-4-carboxy-benzenesulfonamide] | 30 nM | – | 95%
Cc1c(N(Cc2ccc(F)c(C(F)(F)F)c2)S(=O)(=O)c2ccc(C(=O)O)cc2)sc2cc(F)ccc12 [Compound 427, N-(6-Fluoro-3-methyl-benzo[b]thiophen-2-yl)-N-(4-fluoro-3-trifluoromethyl-benzyl)-4-carboxy-benzenesulfonamide] | 5 nM | – | 95%
CCCCN(c1sc2ccccc2c1Br)S(=O)(=O)c1ccc(-c2nnn[nH]2)cc1 [Compound 428, N-(3-Bromo-benzo[b]thiophen-2-yl)-N-(butyl)-4-(1H-tetrazol-5-yl)-benzenesulfonamide] | 10 nM | – | 93%
CCCCN(C1=Cc2ccccc2S1(=O)=O)S(=O)(=O)c1ccc(C(=O)OC)cc1 [Compound 430, N-(Butyl)-N-(1,1-dioxo-benzo[b]thiophen-2-yl)-4-carbomethoxy-benzenesulfonamide] | – | – | 52%

SMILES | IC50 | % Inh @ 0.2 (μM) | inhibition at 0.2 µM
O=S1(=O)C(N(Cc2ccc(F)c(C(F)(F)F)c2)S(=O)(=O)c2ccccc2)=C(Br)c2ccccc21 [Compound 431, N-(3-Bromo-1,1-dioxo-benzo[b]thiophen-2-yl)-N-(4-fluoro-3-trifluoromethyl-benzyl)-benzenesulfonamide] | 20 nM | – | 88%
CCCCN(C1=Cc2ccccc2S1(=O)=O)S(=O)(=O)c1ccc(C(=O)O)cc1 [Compound 432, N-(Butyl)-N-(1,1-dioxo-1H-benzo[b]thiophen-2-yl)-4-carboxy-benzenesulfonamide] | – | – | 42%
CCCCN(C1=C(Br)c2ccccc2S1(=O)=O)S(=O)(=O)c1ccc(C(=O)OC)cc1 [Compound 433, N-(3-Bromo-1,1-dioxo-benzo[b]thiophen-2-yl)-N-(butyl)-4-carbomethoxy-benzenesulfonamide] | 33 nM | – | 93%
CCCCN(C1=C(OC)c2ccccc2S1(=O)=O)S(=O)(=O)c1ccc(C(=O)O)cc1 [Compound 434, N-(Butyl)-N-(3-methoxy-1,1-dioxo-1H-benzo[b]thiophen-2-yl)-4-carboxy-benzenesulfonamide] | 17 nM | – | 90%
CCCCN(C1=C(Br)c2ccccc2S1(=O)=O)S(=O)(=O)c1ccc(C(=O)O)cc1 [Compound 435, N-(Butyl)-N-(3-bromo-1,1-dioxo-1H-benzo[b]thiophen-2-yl)-4-carboxy-benzenesulfonamide] | 33 nM | – | 95%
CCCCN(C1=C(OC)c2ccccc2S1(=O)=O)S(=O)(=O)c1ccc(C(=O)OC)cc1 [Compound 436, N-(Butyl)-N-(3-methoxy-1,1-dioxo-1H-benzo[b]thiophen-2-yl)-4-carbomethoxy-benzenesulfonamide] | 4 nM | – | 89%
O=C(O)c1ccc(S(=O)(=O)N(CC2CCC2)c2sc3ccccc3c2Br)cc1 [Compound 437, N-(3-Bromo-benzo[b]thiophen-2-yl)-N-(cyclobutylmethyl)-4-carboxy-benzenesulfonamide] | 9 nM | – | 92%
O=C(O)c1ccc(S(=O)(=O)N(CC2CCCC2)c2sc3ccccc3c2Br)cc1 [Compound 438, N-(3-Bromo-benzo[b]thiophen-2-yl)-N-(cyclopentylmethyl)-4-carboxy-benzenesulfonamide] | 2 nM | – | 90%
O=C(O)c1ccc(S(=O)(=O)N(C[C@@H]2C[C@@H]3CC[C@H]2C3)c2sc3ccccc3c2Br)cc1 [Compound 439, RS,RS—N-(Bicyclo[2.2.1]heptan-2-ylmethyl)-N-(3-bromobenzo[b]thiophen-2-yl)-4-carboxy-benzenesulfonamide] | 2 nM | 86% | –
O=C(O)c1ccc(S(=O)(=O)N(CC2CCOCC2)c2sc3ccccc3c2Br)cc1 [Compound 440, N-(3-Bromo-benzo[b]thiophen-2-yl)-N-((tetrahydro-2H-pyran-4-yl)methyl)-4-carboxy-benzenesulfonamide] | 14 nM | – | 84%
CN(C)CCN(c1sc2ccccc2c1Br)S(=O)(=O)c1ccc(C(=O)O)cc1 [Compound 441, N-(3-Bromo-benzo[b]thiophen-2-yl)-N-(2-(dimethylamino)ethyl)-4-carboxy-benzenesulfonamide] | – | – | 37%
CCCCN(c1cc2ccccc2s1)S(=O)(=O)c1ccc(-c2noc(=O)[nH]2)cc1 [Compound 442, N-(Benzo[b]thiophen-2-yl)-N-(butyl)-4-(5-oxo-4,5-dihydro-[1,2,4]oxadiazol-3-yl)-benzenesulfonamide] | 67 nM | – | 81%
CCCCN(c1sc2ccccc2c1Br)S(=O)(=O)c1ccc(-c2noc(=O)[nH]2)cc1 [Compound 443, N-(3-Bromo-benzo[b]thiophen-2-yl)-N-(butyl)-4-(5-oxo-4,5-dihydro-[1,2,4]oxadiazol-3-yl)-benzenesulfonamide] | 14 nM | – | 94%
CCCCN(c1cc2ccccc2s1)S(=O)(=O)c1ccc(N(C)C)cc1 [Compound 444, N-(Benzo[b]thiophen-2-yl)-N-(butyl)-4-dimethylamino-benzenesulfonamide] | 122 nM | – | 92%
CCCCN(c1cc2ccccc2s1)S(=O)(=O)c1ccc(N2CCCC2)cc1 [Compound 445, N-(Benzo[b]thiophen-2-yl)-N-(butyl)-4-pyrrolidin-1-yl-benzenesulfonamide] | – | – | 58%
CCCCN(c1cc2ccccc2s1)S(=O)(=O)c1ccc(N2CCOCC2)cc1 [Compound 446, N-Benzo[b]thiophen-2-yl-N-(butyl)-4-morpholin-4-yl-benzenesulfonamide] | 96 nM | – | 82%
